Laboratory results as given in ChEMBL document CHEMBL5329194, “Design, Synthesis, and Evaluation of 18F-Labeling CYP1B1 PET Tracer Based on 2-Phenylquinazolin” (Bioorg Med Chem Lett, 2023).

Key:
Type in all cases: ADME
Cytochrome P450 1A2 = target: T1, Cytochrome P450 1A2 (Homo sapiens, UniProt P05177); assay: Inhibition of CYP1A2 (unknown origin)
T1 sequence (P05177 whole entry): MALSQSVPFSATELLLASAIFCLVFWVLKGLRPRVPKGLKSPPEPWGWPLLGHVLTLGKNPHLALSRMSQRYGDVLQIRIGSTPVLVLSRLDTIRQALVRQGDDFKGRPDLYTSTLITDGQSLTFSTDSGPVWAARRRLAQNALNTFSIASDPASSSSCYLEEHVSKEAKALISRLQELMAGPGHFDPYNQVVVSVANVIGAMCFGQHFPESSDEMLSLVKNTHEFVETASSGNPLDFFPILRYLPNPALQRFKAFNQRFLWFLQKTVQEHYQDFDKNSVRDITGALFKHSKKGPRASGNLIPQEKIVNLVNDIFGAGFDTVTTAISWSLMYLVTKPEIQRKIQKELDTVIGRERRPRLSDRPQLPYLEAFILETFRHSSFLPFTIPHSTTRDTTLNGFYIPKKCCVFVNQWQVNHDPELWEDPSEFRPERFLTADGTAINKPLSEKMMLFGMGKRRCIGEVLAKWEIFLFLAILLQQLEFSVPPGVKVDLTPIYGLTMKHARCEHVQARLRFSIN

Cytochrome P450 1B1 = target: T2, Cytochrome P450 1B1 (Homo sapiens, UniProt Q16678); assay: Inhibition of CYP1B1 (unknown origin) by EROD assay
T2 sequence (Q16678 whole entry): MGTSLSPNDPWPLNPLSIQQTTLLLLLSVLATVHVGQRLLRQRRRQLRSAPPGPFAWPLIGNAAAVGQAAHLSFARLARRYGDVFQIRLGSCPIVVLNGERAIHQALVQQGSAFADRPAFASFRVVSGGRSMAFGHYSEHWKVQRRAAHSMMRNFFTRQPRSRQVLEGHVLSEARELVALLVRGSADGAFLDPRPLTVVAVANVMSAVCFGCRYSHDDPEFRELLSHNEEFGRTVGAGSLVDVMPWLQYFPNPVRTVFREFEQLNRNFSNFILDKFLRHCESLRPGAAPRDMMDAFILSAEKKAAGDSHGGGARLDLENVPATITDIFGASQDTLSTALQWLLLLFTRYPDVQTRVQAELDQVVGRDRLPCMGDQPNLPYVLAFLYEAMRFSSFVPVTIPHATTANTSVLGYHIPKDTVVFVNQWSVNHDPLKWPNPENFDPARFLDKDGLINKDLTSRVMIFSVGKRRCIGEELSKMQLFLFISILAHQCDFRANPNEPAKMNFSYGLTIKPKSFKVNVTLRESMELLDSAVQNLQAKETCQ

Cytochrome P450 1A1 = target: T3, Cytochrome P450 1A1 (Homo sapiens, UniProt P04798); assay: Inhibition of CYP1A1 (unknown origin)
T3 sequence (P04798 whole entry): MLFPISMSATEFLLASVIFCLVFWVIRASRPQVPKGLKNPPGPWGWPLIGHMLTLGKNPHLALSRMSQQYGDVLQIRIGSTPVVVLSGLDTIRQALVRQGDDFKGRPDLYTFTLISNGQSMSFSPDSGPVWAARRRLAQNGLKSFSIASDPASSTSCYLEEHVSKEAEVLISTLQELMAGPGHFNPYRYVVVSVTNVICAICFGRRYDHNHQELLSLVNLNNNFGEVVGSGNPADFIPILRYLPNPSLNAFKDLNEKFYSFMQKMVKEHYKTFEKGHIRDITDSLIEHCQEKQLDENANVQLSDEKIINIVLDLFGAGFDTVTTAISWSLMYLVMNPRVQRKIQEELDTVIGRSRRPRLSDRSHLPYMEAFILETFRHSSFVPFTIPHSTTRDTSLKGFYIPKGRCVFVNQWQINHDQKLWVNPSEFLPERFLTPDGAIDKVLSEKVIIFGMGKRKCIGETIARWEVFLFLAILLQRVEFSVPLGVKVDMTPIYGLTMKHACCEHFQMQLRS

CYP1A1 versus CYP1B1 = assay: Selectivity ratio of IC50 for inhibition of CYP1A1 (unknown origin) to IC50 for inhibition of CYP1B1 (unknown origin); settings: human; read-out: Ratio IC50
CYP1A2 versus CYP1B1 = assay: Selectivity ratio of IC50 for inhibition of CYP1A2 (unknown origin) to IC50 for inhibition of CYP1B1 (unknown origin); settings: human; read-out: Ratio IC50

| IC50 (Cytochrome P450 1A2) [µM] | IC50 (Cytochrome P450 1B1) [µM] | IC50 (Cytochrome P450 1A1) [µM] | Compound | selectivity ratio (CYP1A1 versus CYP1B1) | selectivity ratio (CYP1A2 versus CYP1B1) |
| --- | --- | --- | --- | --- | --- |
| > 1 | 0.0473 | > 1 | FCCOc1nc(-c2ccc(Br)cc2)nc2ccccc12 | > 21.1 | > 21.1 |
| > 1 | 0.0494 | > 1 | O=c1[nH]c(-c2ccc(OCCF)cc2)nc2ccccc12 | > 20.2 | > 20.2 |
|  |  | 0.0642 | O=c1cc(-c2ccccc2)oc2c1ccc1ccccc12 [ALPHA-NAPHTHOFLAVONE] |  |  |
